Experimental data published in PMC11201660 (Biomolecules, 2024).

Columns and labels:
human BChE = human BChE (Homo sapiens, UniProt P06276); test: biochemical; assay type: biochemical
[1] = MTS cytotoxicity assay, 24-h exposure of liver cell line; settings: human, HepG2 cells, IC50 HepG2 (cytotoxicity), tested 3 to 400 μM
human AChE = biological target: T1, human AChE (Homo sapiens, UniProt P22303); test: biochemical; assay type: biochemical
T1 construct: gift from Dr. Zoran Radić, Skaggs School of Pharmacy and Pharmaceutical Sciences, UCSD
T1 sequence (P22303 32-614): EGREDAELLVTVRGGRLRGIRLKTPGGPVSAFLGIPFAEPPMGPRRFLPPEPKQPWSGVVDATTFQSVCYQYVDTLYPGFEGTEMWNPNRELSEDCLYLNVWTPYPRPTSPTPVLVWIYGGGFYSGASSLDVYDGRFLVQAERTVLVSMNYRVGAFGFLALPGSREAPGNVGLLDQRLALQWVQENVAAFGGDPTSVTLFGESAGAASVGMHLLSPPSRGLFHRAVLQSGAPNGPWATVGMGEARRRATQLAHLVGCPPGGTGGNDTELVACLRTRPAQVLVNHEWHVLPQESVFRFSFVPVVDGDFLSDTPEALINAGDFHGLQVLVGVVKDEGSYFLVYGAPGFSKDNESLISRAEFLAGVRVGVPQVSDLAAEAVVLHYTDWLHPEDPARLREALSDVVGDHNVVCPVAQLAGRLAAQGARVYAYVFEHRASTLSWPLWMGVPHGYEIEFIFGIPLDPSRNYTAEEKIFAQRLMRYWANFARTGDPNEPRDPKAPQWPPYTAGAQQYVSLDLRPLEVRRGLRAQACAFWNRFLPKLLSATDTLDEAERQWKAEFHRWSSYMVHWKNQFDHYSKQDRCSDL

HepG2 = test: MTS cytotoxicity assay, 24-h exposure of liver cell line; settings: read-out: IC50 HepG2 (cytotoxicity), tested 3 to 400 μM

Sequence of human BChE (P06276 29-602): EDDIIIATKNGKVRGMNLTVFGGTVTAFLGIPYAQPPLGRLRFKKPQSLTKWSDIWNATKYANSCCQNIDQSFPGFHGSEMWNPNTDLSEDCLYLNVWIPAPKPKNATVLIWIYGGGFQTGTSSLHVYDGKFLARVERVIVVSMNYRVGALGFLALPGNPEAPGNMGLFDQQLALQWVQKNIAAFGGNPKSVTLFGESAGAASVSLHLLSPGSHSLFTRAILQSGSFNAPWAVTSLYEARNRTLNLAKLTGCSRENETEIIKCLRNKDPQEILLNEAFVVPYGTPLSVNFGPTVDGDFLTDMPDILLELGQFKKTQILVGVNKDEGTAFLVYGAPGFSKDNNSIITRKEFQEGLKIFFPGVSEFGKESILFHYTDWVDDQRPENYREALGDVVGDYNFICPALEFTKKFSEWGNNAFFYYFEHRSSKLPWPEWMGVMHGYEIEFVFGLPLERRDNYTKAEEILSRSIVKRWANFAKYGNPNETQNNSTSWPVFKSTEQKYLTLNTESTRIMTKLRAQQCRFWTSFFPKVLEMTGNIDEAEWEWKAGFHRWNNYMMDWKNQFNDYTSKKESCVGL

Structure (SMILES)	Ki (human BChE)	IC50 at 24 h [1]	Ki (human AChE)	IC50 (HepG2)	inhibition of human AChE (in words) (human AChE)	inhibition of human BChE (in words) (human BChE)	inhibition selectivity (AChE vs BChE) (human BChE)
Cc1ccc(/C=C\c2ccsc2/C=N\O)cc1 [cis,anti-18, (Z)-3-((Z)-4-methylstyryl)thiophene-2-carbaldehyde oxime]	760 ± 122 µM	> 400 µM	–	–	–	–	–
N#Cc1ccc(/C=C\c2ccsc2/C=N\O)cc1 [cis,anti-21, 4-((Z)-2-(2-((Z)-(hydroxyimino)methyl)thiophen-3-yl)vinyl)benzonitrile]	53 ± 10 µM	182 ± 13 µM	187 ± 54 µM	–	–	–	–
N#Cc1ccccc1/C=C\c1ccc(/C=N/O)s1 [cis,syn-5, 2-((Z)-2-(5-((E)-(hydroxyimino)methyl)thiophen-2-yl)vinyl)benzonitrile]	17 ± 2 µM	≥ 400 µM	112 ± 21 µM	–	–	–	–
O/N=C/c1ccc(/C=C\c2ccc(Cl)cc2)o1 [cis,syn-12, (E)-5-((Z)-4-chlorostyryl)furan-2-carbaldehyde oxime]	147 ± 37 µM	226 ± 10 µM	68 ± 37 µM	–	–	–	–
Cc1ccc(/C=C\c2ccoc2/C=N/O)cc1 [cis,syn-14, (E)-3-((Z)-4-methylstyryl)furan-2-carbaldehyde oxime]	93 ± 30 µM	182 ± 32 µM	627 ± 245 µM	–	–	–	–
O/N=C/c1occc1/C=C\c1ccc(Cl)cc1 [cis,syn-16, (E)-3-((Z)-4-chlorostyryl)furan-2-carbaldehyde oxime]	119 ± 44 µM	≤ 100 µM	–	65 ± 13 µM	–	–	–
N#Cc1ccc(/C=C\c2ccoc2/C=N/O)cc1 [cis,syn-17, 4-((Z)-2-(2-((E)-(hydroxyimino)methyl)furan-3-yl)vinyl)benzonitrile]	–	≤ 100 µM	544 ± 105 µM	120 ± 6 µM	–	–	–
Cc1ccc(/C=C\c2ccsc2/C=N/O)cc1 [cis,syn-18, (E)-3-((Z)-4-methylstyryl)thiophene-2-carbaldehyde oxime]	86 ± 32 µM	269 ± 38 µM	–	–	–	–	–
COc1ccc(/C=C\c2csc(/C=N/O)c2)cc1 [cis,syn-19′, (E)-4-((Z)-4-methoxystyryl)thiophene-2-carbaldehyde oxime]	–	> 400 µM	–	–	poor inhibitors	poor inhibitors	–
N#Cc1ccc(/C=C\c2ccsc2/C=N/O)cc1 [cis,syn-21, 4-((Z)-2-(2-((E)-(hydroxyimino)methyl)thiophen-3-yl)vinyl)benzonitrile]	59 ± 8 µM	≤ 100 µM	171 ± 68 µM	118 ± 46 µM	–	–	–
ON=Cc1cn(Cc2ccc(F)cc2)nn1 [compound 1, 1-(4-fluorobenzyl)-1H-1,2,3-triazole-4-carbaldehyde oxime]	503 ± 32 µM	> 400 µM	271 ± 29 µM	–	–	–	–
ON=Cc1cn(Cc2ccc(Cl)cc2)nn1 [compound 2, 1-(4-chlorobenzyl)-1H-1,2,3-triazole-4-carbaldehyde oxime]	24 ± 2.9 µM	> 400 µM	267 ± 92 µM	–	–	–	selective BChE inhibitors
O=[N+]([O-])c1ccc(-n2cc(C=NO)nn2)cc1 [compound 3, 1-(4-nitrophenyl)-1H-1,2,3-triazole-4-carbaldehyde oxime]	303 ± 66 µM	> 400 µM	280 ± 30 µM	–	–	–	–
O/N=C\c1ccc(/C=C/c2ccccc2O)s1 [trans,anti-4, (Z)-5-((E)-2-hydroxystyryl)thiophene-2-carbaldehyde oxime]	6.5 ± 0.5 µM	191 ± 21 µM	258 ± 90 µM	–	–	–	–
O/N=C\c1ccc(/C=C/c2ccco2)o1 [trans,anti-6, (Z)-5-((E)-2-(furan-2-yl)vinyl)furan-2-carbaldehyde oxime]	123 ± 23 µM	≥ 400 µM	–	–	–	–	–
Cc1ccc(/C=C/c2ccc(/C=N\O)o2)cc1 [trans,anti-10, (Z)-5-((E)-4-methylstyryl)furan-2-carbaldehyde oxime]	–	> 400 µM	180 ± 40 µM	–	–	–	–
COc1ccc(/C=C/c2ccoc2/C=N\O)cc1 [trans,anti-15, (Z)-3-((E)-4-methoxystyryl)furan-2-carbaldehyde oxime]	–	> 400 µM	–	–	poor inhibitors	poor inhibitors	–
Cc1ccccc1/C=C/c1oc2ccc3ccccc3c2c1/C=N/O [trans,syn-9, (E)-2-((E)-2-methylstyryl)naphtho[2,1-b]furan-1-carbaldehyde oxime]	303 ± 65 µM	> 400 µM	172 ± 29 µM	–	–	–	–
Cc1ccc(/C=C/c2ccc(/C=N/O)o2)cc1 [trans,syn-10, (E)-5-((E)-4-methylstyryl)furan-2-carbaldehyde oxime]	38 ± 9.8 µM	≤ 100 µM	111 ± 45 µM	105 ± 4 µM	–	–	–
Cc1ccc(/C=C/c2ccoc2/C=N/O)cc1 [trans,syn-14, (E)-3-((E)-4-methylstyryl)furan-2-carbaldehyde oxime]	122 ± 47 µM	> 400 µM	–	–	–	–	–
O/N=C/c1occc1/C=C/c1ccc(Cl)cc1 [trans,syn-16, (E)-3-((E)-4-chlorostyryl)furan-2-carbaldehyde oxime]	–	> 400 µM	217 ± 160 µM	–	–	–	–
N#Cc1ccc(/C=C/c2ccoc2/C=N/O)cc1 [trans,syn-17, 4-((E)-2-(2-((E)-(hydroxyimino)methyl)furan-3-yl)vinyl)benzonitrile]	–	> 400 µM	66 ± 24 µM	–	–	–	selective AChE inhibitors
Cc1ccc(/C=C/c2ccsc2/C=N/O)cc1 [trans,syn-18, (E)-3-((E)-4-methylstyryl)thiophene-2-carbaldehyde oxime]	–	> 400 µM	59 ± 39 µM	–	–	–	selective AChE inhibitors
CCCn1cc(C=Cc2ccc(C=NO)s2)nn1 [trans-7]	49 ± 11 µM	> 400 µM	147 ± 43 µM	–	–	–	–
O=[N+]([O-])c1ccc(-n2cc(C=Cc3ccc(C=NO)s3)nn2)cc1 [trans-8, 5-(2-(1-(4-nitrophenyl)-1H-1,2,3-triazol-4-yl)vinyl)thiophene-2-carbaldehyde oxime]	143 ± 22 µM	> 400 µM	199 ± 38 µM	–	–	–	–
